Test results taken from US9572850B2, “Use of cajeput and Pimenta racemosa extract for treating parasitic infestation of fish” (Mars, Incorporated, priority 2009, dated 2017).

Experiments:
[1] = test system: single guppies each infected with 2-200 G. turnbulli; experiment: Host mortality in Trial 2
Experimental: They were fed on a mixture of live food (Daphnia and Artemia spp.) and Aquarian fish flakes at least twice daily and were maintained at 25±1° C. with a 12 h dark:12 h light cycle.
On D1 (day 1) and D8 (day 8) the number of parasites and their location on the host were recorded by screening fish anaesthetised with 0.02% MS222 using a stereo-microscope and cold light illumination.
In a second trial, single guppies (n=115) each infected with 2-200 G. turnbulli were maintained as in Trial 1 and received treatments of either allyl disulphide, Pimafix®, Melafix® or a Pimafix®/Melafix® combination.

G. turnbulli [2] = experiment: Trial 2: single parasite, single fish, low dose, 7 day treatment; efficacy of treatments; type: in vivo
Experimental: (§1) Efficacy of treatments in all trials was assessed using the following equation: Et=(L0−Lt)/L0 for Lt<L0, and ΔEt=0 for Lt>L0. Where • L0=parasite load at start of treatment • Lt=parasite load at end of treatment and • Et=efficacy of treatment at time t.
All data were analysed in Minitab vs. 15.

[3] = test system: Gyrodactylus turnbulli infections on guppies; experiment: Allyl disulphide carefully applied: high dose 10 min exposure, followed by low dose 1 h exposure; type: in vivo; conditions: high dose 10 min exposure, followed by low dose 1 h exposure
G. turnbulli [4] = conditions: 0.15 mg/l alone (daily water changes)
Experimental: as §1

SMILES	increase of host mortality compared to the control [1] [%]	Host mortalities (%) Trial 2 ([1]; single guppies, 7 day treatment) [%]	efficacy (in words) (G. turnbulli [2]; Trial 2, single parasite, single fish, low dose, 7 day treatment)	efficacy (in words) (G. turnbulli [2]; applied at a low dose, comparable to applications used in the aquarium trade)	efficacy (in words) [3]	efficacy at removing parasites (in words) (G. turnbulli [4])
C=CCSSCC=C [Allyl disulphide, allyl disulphide]	15	50	not effective	not effective	effective only when carefully applied	–
c1ccc([C@H]2CN3CCSC3=N2)cc1 [Levamisole, levamisole]	–	–	–	–	–	not effective at removing parasites
